For 22 compounds, IC50 results are on record in patent US11077100B2, “Tetrahydroquinoline derivatives as P2X7 receptor antagonists” (RaQualia Pharma Inc., priority 2017, dated 2021).

One assay deals with human P2X7 (Homo sapiens (Human), UniProt Q99572). In words: Human P2X7 functional assay (Ca2+ influx, Fluo-4, FDSS). It is filed as cell-based. As to conditions: antagonistic activity with respect to the human P2X7 receptor; BzATP final concentration 80 microM. An outline of the steps: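 Ca2+ influx was triggered with BzATP (80 μM final) after a 10-min room-temperature compound preincubation and monitored with Fluo-4 (ex 480/em 540 nm) on FDSS. The cells were HEK293 stably carrying FLAG-tagged human P2X7. Duplicate-averaged 7-point dose-responses gave IC50s.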

In another assay the target is rat P2X7 (Rattus norvegicus (Rat), UniProt Q64663). In words: Rat P2X7 functional assay (Ca2+ influx, Fluo-4, FDSS). The conditions noted are these: HEK293 cells stably expressing rat P2X7; BzATP final 10 microM; 7-point dose-response; read-out: Antagonistic activities with respect to the rat P2X7 receptor (IC50). Format: cell-based. An outline of the steps:
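IC50 derived from 7-point dose-response in duplicate, measuring inhibition of BzATP-evoked (final 10 microM) intracellular Ca2+ increase by Fluo-4 fluorescence on FDSS. Rat P2X7-HEK293 cells were exposed to compound for 10 min in the dark beforehand.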

One may read the IC50 as the point on the concentration scale where inhibition reaches its midpoint.

Sequence of human P2X7 (Q99572 whole entry): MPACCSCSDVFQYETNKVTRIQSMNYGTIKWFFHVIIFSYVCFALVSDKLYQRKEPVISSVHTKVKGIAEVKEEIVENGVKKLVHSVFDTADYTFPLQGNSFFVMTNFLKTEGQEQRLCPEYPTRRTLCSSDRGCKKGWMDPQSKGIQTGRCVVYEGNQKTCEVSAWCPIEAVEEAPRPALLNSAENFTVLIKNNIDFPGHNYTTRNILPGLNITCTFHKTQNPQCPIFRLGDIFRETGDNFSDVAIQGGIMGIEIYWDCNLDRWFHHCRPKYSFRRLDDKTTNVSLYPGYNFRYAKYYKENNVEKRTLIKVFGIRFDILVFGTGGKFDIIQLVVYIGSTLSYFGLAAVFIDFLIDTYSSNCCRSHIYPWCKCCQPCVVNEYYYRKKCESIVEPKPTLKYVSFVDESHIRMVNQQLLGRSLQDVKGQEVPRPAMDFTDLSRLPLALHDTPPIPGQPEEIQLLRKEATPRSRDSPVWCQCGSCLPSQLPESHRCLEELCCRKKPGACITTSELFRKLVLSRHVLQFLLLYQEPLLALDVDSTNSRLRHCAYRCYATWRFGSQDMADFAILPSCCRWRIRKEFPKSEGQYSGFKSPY
Sequence of rat P2X7 (Q64663 whole entry): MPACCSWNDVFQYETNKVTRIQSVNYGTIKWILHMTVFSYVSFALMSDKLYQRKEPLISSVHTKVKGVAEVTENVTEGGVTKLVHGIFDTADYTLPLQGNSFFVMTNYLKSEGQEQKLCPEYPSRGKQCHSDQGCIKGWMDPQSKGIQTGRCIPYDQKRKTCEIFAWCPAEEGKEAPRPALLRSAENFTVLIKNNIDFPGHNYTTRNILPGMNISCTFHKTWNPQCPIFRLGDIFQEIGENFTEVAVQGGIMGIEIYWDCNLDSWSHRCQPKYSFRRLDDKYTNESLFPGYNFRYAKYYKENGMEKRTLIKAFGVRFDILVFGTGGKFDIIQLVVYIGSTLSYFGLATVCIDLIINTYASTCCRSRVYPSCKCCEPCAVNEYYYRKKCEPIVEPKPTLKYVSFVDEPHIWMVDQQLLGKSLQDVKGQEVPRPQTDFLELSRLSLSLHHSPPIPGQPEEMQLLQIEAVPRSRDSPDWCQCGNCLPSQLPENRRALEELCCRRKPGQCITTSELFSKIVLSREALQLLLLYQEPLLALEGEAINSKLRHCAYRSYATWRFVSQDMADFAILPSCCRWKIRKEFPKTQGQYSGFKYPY

Consider `O=C(NCc1ccc(F)c(F)c1F)[C@@]1(F)CC[C@@H](O)c2ncccc21` [Example 136, (5R,8R)-5-fluoro-8-hydroxy-N-(2,3,4-trifluorobenzyl)-5,6,7,8-tetrahydroquinoline-5-carboxamide], for which the IC50 on human P2X7 was 101 to 300 nM; on rat P2X7, less than 1000 nM.
For `O=C(NCc1ccc(F)c(F)c1F)[C@]1(F)CC[C@H](O)c2ncccc21` [Example 137, (5S,8S)-5-fluoro-8-hydroxy-N-(2,3,4-trifluorobenzyl)-5,6,7,8-tetrahydroquinoline-5-carboxamide], the IC50 against human P2X7 was less than 50 nM; at rat P2X7 it was less than 1000 nM.
The like results for `O=C(NCc1c(Cl)cccc1Cl)[C@]1(F)CC[C@H](O)c2ncccc21` [Example 139, (5S,8S)-N-(2,6-dichlorobenzyl)-5-fluoro-8-hydroxy-5,6,7,8-tetrahydroquinoline-5-carboxamide] were, in that order, less than 50 nM and less than 1000 nM.
The like results for `O=C(NCc1ccc(F)cc1F)[C@]1(F)CC[C@H](O)c2ncccc21` [Example 141, (5S,8S)-N-(2,4-difluorobenzyl)-5-fluoro-8-hydroxy-5,6,7,8-tetrahydroquinoline-5-carboxamide] were, in that order, less than 50 nM and less than 1000 nM.
For the compound `Cc1ccc(F)c(CNC(=O)[C@]2(F)CC[C@H](O)c3ncccc32)c1Cl` [Example 142, (5S,8S)-N-(2-chloro-6-fluoro-3-methylbenzyl)-5-fluoro-8-hydroxy-5,6,7,8-tetrahydroquinoline-5-carboxamide], the IC50 against human P2X7 was less than 50 nM; on rat P2X7 it was less than 1000 nM.
The matching figures for `O=C(NCc1ccc(Cl)cc1F)[C@]1(F)CC[C@H](O)c2ncccc21` [Example 146, (5S,8S)-N-(4-chloro-2-fluorobenzyl)-5-fluoro-8-hydroxy-5,6,7,8-tetrahydroquinoline-5-carboxamide]: less than 50 nM and less than 1000 nM.
As to `O=C(NCc1c(Cl)cc(C(F)(F)F)cc1Cl)[C@]1(F)CC[C@H](O)c2ncccc21` [Example 148, (5S,8S)-N-(2,6-dichloro-4-(trifluoromethyl)benzyl)-5-fluoro-8-hydroxy-5,6,7,8-tetrahydroquinoline-5-carboxamide], the IC50 on human P2X7 was less than 50 nM; at rat P2X7, less than 1000 nM.
As to `O=C(NCc1c(Cl)cc(Cl)cc1C(F)F)[C@]1(F)CC[C@H](O)c2ncccc21` [Example 149, (5S,8S)-N-(2,4-dichloro-6-(difluoromethyl)benzyl)-5-fluoro-8-hydroxy-5,6,7,8-tetrahydroquinoline-5-carboxamide], the IC50 against human P2X7 was less than 50 nM; on rat P2X7 it was less than 1000 nM.
For the compound `O=C(NCc1c(Cl)cc(F)cc1CO)[C@]1(F)CC[C@H](O)c2ncccc21` [Example 150, (5S,8S)-N-(2-chloro-4-fluoro-6-(hydroxymethyl)benzyl)-5-fluoro-8-hydroxy-5,6,7,8-tetrahydroquinoline-5-carboxamide], the half-maximal inhibitory concentration (IC50) on human P2X7 is less than 50 nM; at rat P2X7, less than 1000 nM.
Consider `O=C(NCc1ccc(Br)cc1Cl)[C@@]1(F)CC[C@@H](O)c2ncccc21` [Example 153, (5R,8R)-N-(4-bromo-2-chlorobenzyl)-5-fluoro-8-hydroxy-5,6,7,8-tetrahydroquinoline-5-carboxamide], for which the IC50 on human P2X7 is less than 50 nM; on rat P2X7, less than 1000 nM.
Take `O=C(NCc1ccc(Br)cc1Cl)[C@]1(F)CC[C@H](O)c2ncccc21` [Example 154, (5S,8S)-N-(4-bromo-2-chlorobenzyl)-5-fluoro-8-hydroxy-5,6,7,8-tetrahydroquinoline-5-carboxamide]: the values for the 50% inhibitory concentration (IC50) against human P2X7 and at rat P2X7 were less than 50 nM and less than 1000 nM, respectively.
For `O=C(NCc1ccc(Cl)cc1C(F)(F)F)[C@]1(F)CC[C@H](O)c2ncccc21` [Example 157, (5S,8S)-N-(4-chloro-2-(trifiuoromethyl)benzyl)-5-fluoro-8-hydroxy-5,8,7,8-tetrahydroquinoline-5-carboxamide], the IC50 against human P2X7 was less than 50 nM; at rat P2X7, less than 1000 nM.
Turning to `O=C(NCc1cccc(Cl)c1Cl)[C@@]1(F)CC[C@@H](O)c2ncccc21` [Example 158, (5R,8R)-N-(2,3-dichlorobenzyl)-5-fluoro-8-hydroxy-5,6,7,8-tetrahydroquinoline-5-carboxamide], the 50% inhibitory concentration (IC50) against human P2X7 is less than 50 nM; on rat P2X7, less than 1000 nM.
As to `O=C(NCc1cccc(Cl)c1Cl)[C@]1(F)CC[C@H](O)c2ncccc21` [Example 159, (5S,8S)-N-(2,3-dichlorobenzyl)-5-fluoro-8-hydroxy-5,6,7,8-tetrahydroquinoline-5-carboxamide], the values for the IC50 against human P2X7 and on rat P2X7 were less than 50 nM and less than 1000 nM, respectively.
The matching figures for `O=C(NCc1cc(F)c(F)cc1Cl)[C@]1(F)CC[C@H](O)c2ncccc21` [Example 163, (5S,8S)-N-(2-chloro-4,5-difluorobenzyl)-5-fluoro-8-hydroxy-5,6,7,8-tetrahydroquinoline-5-carboxamide]: less than 50 nM and less than 1000 nM.
On to `O=C(NCc1c(Cl)ccc(Cl)c1Cl)[C@]1(F)CC[C@H](O)c2ncccc21` [Example 165, (5S,8S)-5-fluoro-8-hydroxy-N-(2,3,6-trichlorobenzyl)-5,6,7,8-tetrahydroquinoline-5-carboxamide], for which the concentration for half-maximal inhibition (IC50) at human P2X7 is less than 50 nM; at rat P2X7 it was less than 1000 nM.
The matching figures for `Cc1ccc(CNC(=O)[C@]2(F)CC[C@H](O)c3ncccc32)c(Cl)c1` [Example 167, (5S,8S)-N-(2-chloro-4-methylbenzyl)-5-fluoro-8-hydroxy-5,6,7,8-tetrahydroquinoline-5-carboxamide]: less than 50 nM and less than 1000 nM.
Regarding `C[C@H](NC(=O)[C@]1(F)CC[C@H](O)c2ncccc21)c1ccc(Cl)c(Cl)c1Cl` [Example 168, (5S,8S)-5-fluoro-8-hydroxy-N-((S)-1-(2,3,4-trichlorophenyl)ethyl)-5,6,7,8-tetrahydroquinoline-5-carboxamide], the concentration for half-maximal inhibition (IC50) is 101 to 300 nM at human P2X7 and less than 1000 nM on rat P2X7.
As to `O=C(NCc1cccc(F)c1Cl)[C@]1(F)CC[C@H](O)c2ncccc21` [Example 169, (5S,8S)-N-(2-chloro-3-fluorobenzyl)-5-fluoro-8-hydroxy-5,6,7,8-tetrahydroquinoline-5-carboxamide], the IC50 against human P2X7 is less than 50 nM; at rat P2X7, less than 1000 nM.
On to `O=C(NCc1c(F)ccc(F)c1Cl)[C@]1(F)CC[C@H](O)c2ncccc21` [Example 170, (5S,8S)-N-(2-chloro-3,6-difluorobenzyl)-5-fluoro-8-hydroxy-5,6,7,8-tetrahydroquinoline-5-carboxamide], for which the IC50 against human P2X7 is less than 50 nM; on rat P2X7 it was less than 1000 nM.
With `O=C(NCc1c(F)cccc1Cl)[C@]1(F)CC[C@H](O)c2ncccc21` [Example 171, (5S,8S)-N-(2-chloro-6-fluorobenzyl)-5-fluoro-8-hydroxy-5,6,7,8-tetrahydroquinoline-5-carboxamide], the IC50 against human P2X7 is less than 50 nM; on rat P2X7, less than 1000 nM.
As to `COc1ccc(CNC(=O)[C@]2(F)CC[C@H](O)c3ncccc32)c(Cl)c1` [Example 172, (5S,8S)-N-(2-chloro-4-methoxybenzyl)-5-fluoro-8-hydroxy-5,6,7,8-tetrahydroquinoline-5-carboxamide], the figures for the half-inhibitory concentration (IC50) against human P2X7 and on rat P2X7 were 101 to 300 nM and less than 1000 nM, respectively.
